Data: US20260224588A1, “BENZODIAZEPINONE-DERIVED INHIBITORS OF EGFR AND HER2” (The Research Foundation for the State University of New York, priority 2023, published 2026)

Columns and labels:
CSNK1A1 = CSNK1A1 (Homo sapiens, UniProt P48729); assay: KINOMEscan; type: binding; details: 1 μM of compound 4; read-out: POC
ABL2 = biological target: T1, ABL2 (Homo sapiens, UniProt P42684); assay: KINOMEscan; type: binding; details: 1 μM of compound 4; read-out: POC
T1 construct: purchased Eurofins DiscoverX Corporation

ERK8 = biological target: T2, ERK8 (Homo sapiens, UniProt Q8TD08); assay: KINOMEscan; type: binding; details: 1 μM of compound 4; read-out: POC
T2 construct: purchased Eurofins DiscoverX Corporation
T2 sequence (Q8TD08 whole entry): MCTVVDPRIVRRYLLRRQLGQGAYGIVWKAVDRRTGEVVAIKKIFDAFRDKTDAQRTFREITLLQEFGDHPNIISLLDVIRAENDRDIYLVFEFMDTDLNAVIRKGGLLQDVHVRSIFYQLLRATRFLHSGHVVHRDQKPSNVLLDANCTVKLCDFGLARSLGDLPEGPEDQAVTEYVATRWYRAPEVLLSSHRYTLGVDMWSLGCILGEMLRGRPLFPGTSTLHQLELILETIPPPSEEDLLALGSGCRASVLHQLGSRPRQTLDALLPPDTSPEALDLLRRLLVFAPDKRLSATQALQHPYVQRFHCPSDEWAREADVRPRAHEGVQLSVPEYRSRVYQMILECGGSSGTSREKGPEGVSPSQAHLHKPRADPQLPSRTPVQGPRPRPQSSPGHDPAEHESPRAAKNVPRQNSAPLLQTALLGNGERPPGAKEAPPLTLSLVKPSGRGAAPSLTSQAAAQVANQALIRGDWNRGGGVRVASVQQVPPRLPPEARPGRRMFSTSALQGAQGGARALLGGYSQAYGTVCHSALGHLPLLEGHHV

SBK1 = biological target: T3, SBK1 (Homo sapiens, UniProt Q52WX2); assay: KINOMEscan; type: binding; details: 1 μM of compound 4; read-out: POC
T3 construct: purchased Eurofins DiscoverX (KINOMEscan service)

EGFR(S752-1759del) = biological target: T4, EGFR(S752-1759del) (Homo sapiens, UniProt P00533, DEL752-759); assay: KINOMEscan; type: binding; details: 1 μM of compound 4; read-out: POC
T4 construct: purchased Eurofins DiscoverX (KINOMEscan service)

BRSK2 = BRSK2 (Homo sapiens, UniProt Q8IWQ3); assay: KINOMEscan; type: binding; details: 1 μM of compound 4; read-out: POC
[1] = biological target: T5, ABL1(Q252H)-nonphosphorylated (Homo sapiens, UniProt P00519, Q252H); assay: KINOMEscan; type: binding; details: 1 μM of compound 4; read-out: POC
T5 construct: purchased Eurofins DiscoverX Corporation

EPHB1 = biological target: T6, EPHB1 (Homo sapiens, UniProt P54762); assay: KINOMEscan; type: binding; details: 1 μM of compound 4; read-out: POC
T6 construct: purchased Eurofins DiscoverX (KINOMEscan service)

ASK1 = ASK1 (Homo sapiens, UniProt Q99683); assay: KINOMEscan; type: binding; details: 1 μM of compound 4; read-out: POC
Chain of ASK1 (Q99683 whole entry, the tested form may be a part): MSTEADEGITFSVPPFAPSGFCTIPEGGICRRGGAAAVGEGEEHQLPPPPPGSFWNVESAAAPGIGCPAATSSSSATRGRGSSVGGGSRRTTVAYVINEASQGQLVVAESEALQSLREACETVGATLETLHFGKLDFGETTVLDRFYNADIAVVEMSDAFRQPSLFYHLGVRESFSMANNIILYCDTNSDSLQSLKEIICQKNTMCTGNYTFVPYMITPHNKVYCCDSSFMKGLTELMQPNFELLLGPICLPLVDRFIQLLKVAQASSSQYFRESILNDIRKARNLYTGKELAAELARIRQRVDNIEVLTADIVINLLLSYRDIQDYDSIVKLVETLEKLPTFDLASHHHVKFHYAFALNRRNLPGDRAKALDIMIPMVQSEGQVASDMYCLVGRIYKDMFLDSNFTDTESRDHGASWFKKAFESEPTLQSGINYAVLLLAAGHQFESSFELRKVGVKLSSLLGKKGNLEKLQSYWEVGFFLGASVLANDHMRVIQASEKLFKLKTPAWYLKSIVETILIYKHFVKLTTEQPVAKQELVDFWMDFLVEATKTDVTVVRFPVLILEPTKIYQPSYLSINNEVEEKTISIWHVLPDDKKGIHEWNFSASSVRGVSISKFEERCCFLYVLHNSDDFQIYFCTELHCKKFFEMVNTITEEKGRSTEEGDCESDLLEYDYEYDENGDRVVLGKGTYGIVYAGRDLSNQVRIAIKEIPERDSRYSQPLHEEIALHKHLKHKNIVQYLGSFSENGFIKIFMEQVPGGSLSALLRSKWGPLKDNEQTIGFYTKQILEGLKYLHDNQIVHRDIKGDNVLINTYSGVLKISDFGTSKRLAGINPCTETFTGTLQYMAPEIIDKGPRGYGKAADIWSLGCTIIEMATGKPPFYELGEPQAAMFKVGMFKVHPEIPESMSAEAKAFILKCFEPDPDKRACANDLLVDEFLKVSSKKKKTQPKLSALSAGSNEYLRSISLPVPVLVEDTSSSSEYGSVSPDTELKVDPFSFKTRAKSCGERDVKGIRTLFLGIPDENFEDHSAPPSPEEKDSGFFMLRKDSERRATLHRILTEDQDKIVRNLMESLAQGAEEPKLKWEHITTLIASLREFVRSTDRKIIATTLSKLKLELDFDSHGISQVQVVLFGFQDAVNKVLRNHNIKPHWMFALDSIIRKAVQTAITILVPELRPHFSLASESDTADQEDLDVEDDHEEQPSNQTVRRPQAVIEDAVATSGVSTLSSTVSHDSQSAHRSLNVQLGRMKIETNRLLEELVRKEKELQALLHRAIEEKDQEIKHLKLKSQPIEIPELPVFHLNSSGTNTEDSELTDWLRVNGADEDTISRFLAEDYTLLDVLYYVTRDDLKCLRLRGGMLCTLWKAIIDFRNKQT

[2] = biological target: T7, EGFR L858R/T790M/C797S kinase domain (Homo sapiens, UniProt P00533, C797S/L858R/T790M); assay: HTRF-based activity assay; type: biochemical; details: 100 μM ATP, enzyme 0.02 nM, read-out: Biochemical EGFR IC50, LRTMCS
T7 construct: The EGFR kinase domain (residues 696-1022) was cloned into pTriEx; 6xHis (N, cleaved yes); GST (N, cleaved yes); made in house; host or cells: SF9 insect cells (baculovirus)
Experimental: Protein expression and purification. The EGFR kinase domain (residues 696-1022) was cloned into pTriEx with an N-terminal 6×His-glutathione S-transferase (GST) fusion tag followed by a TEV protease cleavage site. EGFR WT, L858R, L858R/T790M, L858R/T790M/C797S was expressed after baculoviral infection in SF9 cells and EGFR(T790M/V948R) was expressed in SF21 cells. Briefly, cells were pelleted and resuspended in lysis buffer composed of 50 mM Tris pH 8.0, 500 mM NaCl, 1 mM tris(2-carboxyethyl)phosphine (TCEP), and 5% glycerol. Cells were lysed via sonication prior to ultracentrifugation at >200,000 g for 1 h. Imidazole pH 8.0 was added to the supernatant for a final concentration of 40 mM and flowed through a column containing Ni-NTA agarose beads. The resin was washed with lysis buffer supplemented with 40 mM imidazole and eluted with lysis buffer containing 200 mM imidazole. Eluted EGFR kinase domain was dialyzed overnight in the presence of 5% (w/w) TEV protease against dialysis buffer containing 50 mM Tris pH 8.0, 500 mM NaCl, 1 mM TCEP, and 5% glycerol. The cleaved protein was passed through Ni-NTA resin to remove the 6×His-GST fusion protein and TEV prior to size exclusion chromatography on a prep-grade Superdex S200 column in 50 mM Tris pH 8.0, 500 mM NaCl, 1 mM TCEP, and 5% glycerol.
HTRF Assays. Biochemical assays for EGFR domains were carried out using a homogeneous time-resolved fluorescence (HTRF) KinEASE-TK (Cisbio) assay, as described previously. Assays were optimized for ATP concentration of 100 μM with enzyme concentrations WT EGFR 10 nM, L858R 0.1 nM, L858R/T790M at 0.02 nM and L858R/T790M/C797S at 0.02 nM. Inhibitor compounds in DMSO were dispensed directly in 384-well plates with the D300 digital dispenser (Hewlett Packard) followed immediately by the addition of aqueous buffered solutions using the Multidrop Combi Reagent Dispenser (Thermo Fischer). […] The curves were fitted using a non-linear regression model with a sigmoidal dose response.

EPHB2 = biological target: T8, EPHB2 (Homo sapiens, UniProt P29323); assay: KINOMEscan; type: binding; details: 1 μM of compound 4; read-out: POC
T8 construct: purchased Eurofins DiscoverX (KINOMEscan service)

EPHA6 = biological target: T9, EPHA6 (Homo sapiens, UniProt Q9UF33); assay: KINOMEscan; type: binding; details: 1 μM of compound 4; read-out: POC
T9 construct: purchased Eurofins DiscoverX (KINOMEscan service)

GCN2(Kin.Dom.2 + S808G) = biological target: T10, GCN2(Kin.Dom.2 + S808G) (Homo sapiens, UniProt Q9P2K8, S808G); assay: KINOMEscan; type: binding; details: 1 μM of compound 4; read-out: POC
T10 construct: GCN2(Kin.Dom.2 + S808G); purchased Eurofins DiscoverX Corporation

PRKX = PRKX (Homo sapiens, UniProt P51817); assay: KINOMEscan; type: binding; details: 1 μM of compound 4; read-out: POC
EPHA3 = biological target: T11, EPHA3 (Homo sapiens, UniProt P29320); assay: KINOMEscan; type: binding; details: 1 μM of compound 4; read-out: POC
T11 construct: purchased Eurofins DiscoverX (KINOMEscan service)

PIM1 = PIM1 (Homo sapiens, UniProt P11309); assay: KINOMEscan; type: binding; details: 1 μM of compound 4; read-out: POC
Chain of PIM1 (P11309 whole entry): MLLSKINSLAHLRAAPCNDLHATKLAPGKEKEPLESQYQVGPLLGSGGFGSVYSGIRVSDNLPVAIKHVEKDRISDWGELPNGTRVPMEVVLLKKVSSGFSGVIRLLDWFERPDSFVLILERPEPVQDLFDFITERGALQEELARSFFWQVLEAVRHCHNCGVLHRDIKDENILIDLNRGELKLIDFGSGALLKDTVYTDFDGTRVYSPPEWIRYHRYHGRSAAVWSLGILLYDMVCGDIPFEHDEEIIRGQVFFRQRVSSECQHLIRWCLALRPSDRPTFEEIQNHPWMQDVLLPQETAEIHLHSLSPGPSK

MLK1 = MLK1 (Homo sapiens, UniProt P80192); assay: KINOMEscan; type: binding; details: 1 μM of compound 4; read-out: POC
MUSK = MUSK (Homo sapiens, UniProt O15146); assay: KINOMEscan; type: binding; details: 1 μM of compound 4; read-out: POC
IKK-epsilon = IKK-epsilon (Homo sapiens, UniProt Q14164); assay: KINOMEscan; type: binding; details: 1 μM of compound 4; read-out: POC
Chain of IKK-epsilon (Q14164 whole entry): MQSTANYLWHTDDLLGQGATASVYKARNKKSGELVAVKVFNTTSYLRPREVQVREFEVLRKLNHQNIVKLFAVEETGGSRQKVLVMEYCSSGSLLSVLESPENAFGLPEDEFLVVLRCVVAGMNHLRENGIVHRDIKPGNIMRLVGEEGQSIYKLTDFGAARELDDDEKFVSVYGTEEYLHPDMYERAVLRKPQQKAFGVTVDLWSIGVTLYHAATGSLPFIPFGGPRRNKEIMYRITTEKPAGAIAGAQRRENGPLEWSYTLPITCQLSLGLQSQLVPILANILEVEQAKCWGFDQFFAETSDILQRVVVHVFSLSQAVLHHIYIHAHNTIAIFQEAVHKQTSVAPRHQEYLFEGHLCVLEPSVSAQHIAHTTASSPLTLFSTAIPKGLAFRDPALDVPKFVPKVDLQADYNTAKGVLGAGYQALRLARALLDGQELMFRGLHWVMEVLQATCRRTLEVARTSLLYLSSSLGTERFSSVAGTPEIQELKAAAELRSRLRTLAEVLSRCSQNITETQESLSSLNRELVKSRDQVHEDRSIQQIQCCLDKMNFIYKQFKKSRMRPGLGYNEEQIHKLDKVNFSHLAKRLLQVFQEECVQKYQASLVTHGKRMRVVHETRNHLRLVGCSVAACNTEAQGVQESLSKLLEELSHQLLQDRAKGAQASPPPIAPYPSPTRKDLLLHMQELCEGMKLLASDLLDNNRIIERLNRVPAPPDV

TLK1 = biological target: T12, TLK1 (Homo sapiens, UniProt Q9UKI8); assay: KINOMEscan; type: binding; details: 1 μM of compound 4; read-out: POC
T12 construct: purchased Eurofins DiscoverX Corporation

ULK2 = biological target: T13, ULK2 (Homo sapiens, UniProt Q8IYT8); assay: KINOMEscan; type: binding; details: 1 μM of compound 4; read-out: POC
T13 construct: purchased Eurofins DiscoverX

[3] = biological target: JAK2(JH1domain-catalytic) (Homo sapiens, UniProt O60674); assay: KINOMEscan; type: binding; details: 1 μM of compound 4; read-out: POC
BUB1 = BUB1 (Homo sapiens, UniProt O43683); assay: KINOMEscan; type: binding; details: 1 μM of compound 4; read-out: POC
KIT(V559D + T670I) = KIT(V559D + T670I) (Homo sapiens, UniProt P10721, T670I/V559D); assay: KINOMEscan; type: binding; details: 1 μM of compound 4; read-out: POC
TRPM6 = biological target: T14, TRPM6 (Homo sapiens, UniProt Q9BX84); assay: KINOMEscan; type: binding; details: 1 μM of compound 4; read-out: POC
T14 construct: purchased Eurofins DiscoverX Corporation
T14 sequence (Q9BX84 whole entry): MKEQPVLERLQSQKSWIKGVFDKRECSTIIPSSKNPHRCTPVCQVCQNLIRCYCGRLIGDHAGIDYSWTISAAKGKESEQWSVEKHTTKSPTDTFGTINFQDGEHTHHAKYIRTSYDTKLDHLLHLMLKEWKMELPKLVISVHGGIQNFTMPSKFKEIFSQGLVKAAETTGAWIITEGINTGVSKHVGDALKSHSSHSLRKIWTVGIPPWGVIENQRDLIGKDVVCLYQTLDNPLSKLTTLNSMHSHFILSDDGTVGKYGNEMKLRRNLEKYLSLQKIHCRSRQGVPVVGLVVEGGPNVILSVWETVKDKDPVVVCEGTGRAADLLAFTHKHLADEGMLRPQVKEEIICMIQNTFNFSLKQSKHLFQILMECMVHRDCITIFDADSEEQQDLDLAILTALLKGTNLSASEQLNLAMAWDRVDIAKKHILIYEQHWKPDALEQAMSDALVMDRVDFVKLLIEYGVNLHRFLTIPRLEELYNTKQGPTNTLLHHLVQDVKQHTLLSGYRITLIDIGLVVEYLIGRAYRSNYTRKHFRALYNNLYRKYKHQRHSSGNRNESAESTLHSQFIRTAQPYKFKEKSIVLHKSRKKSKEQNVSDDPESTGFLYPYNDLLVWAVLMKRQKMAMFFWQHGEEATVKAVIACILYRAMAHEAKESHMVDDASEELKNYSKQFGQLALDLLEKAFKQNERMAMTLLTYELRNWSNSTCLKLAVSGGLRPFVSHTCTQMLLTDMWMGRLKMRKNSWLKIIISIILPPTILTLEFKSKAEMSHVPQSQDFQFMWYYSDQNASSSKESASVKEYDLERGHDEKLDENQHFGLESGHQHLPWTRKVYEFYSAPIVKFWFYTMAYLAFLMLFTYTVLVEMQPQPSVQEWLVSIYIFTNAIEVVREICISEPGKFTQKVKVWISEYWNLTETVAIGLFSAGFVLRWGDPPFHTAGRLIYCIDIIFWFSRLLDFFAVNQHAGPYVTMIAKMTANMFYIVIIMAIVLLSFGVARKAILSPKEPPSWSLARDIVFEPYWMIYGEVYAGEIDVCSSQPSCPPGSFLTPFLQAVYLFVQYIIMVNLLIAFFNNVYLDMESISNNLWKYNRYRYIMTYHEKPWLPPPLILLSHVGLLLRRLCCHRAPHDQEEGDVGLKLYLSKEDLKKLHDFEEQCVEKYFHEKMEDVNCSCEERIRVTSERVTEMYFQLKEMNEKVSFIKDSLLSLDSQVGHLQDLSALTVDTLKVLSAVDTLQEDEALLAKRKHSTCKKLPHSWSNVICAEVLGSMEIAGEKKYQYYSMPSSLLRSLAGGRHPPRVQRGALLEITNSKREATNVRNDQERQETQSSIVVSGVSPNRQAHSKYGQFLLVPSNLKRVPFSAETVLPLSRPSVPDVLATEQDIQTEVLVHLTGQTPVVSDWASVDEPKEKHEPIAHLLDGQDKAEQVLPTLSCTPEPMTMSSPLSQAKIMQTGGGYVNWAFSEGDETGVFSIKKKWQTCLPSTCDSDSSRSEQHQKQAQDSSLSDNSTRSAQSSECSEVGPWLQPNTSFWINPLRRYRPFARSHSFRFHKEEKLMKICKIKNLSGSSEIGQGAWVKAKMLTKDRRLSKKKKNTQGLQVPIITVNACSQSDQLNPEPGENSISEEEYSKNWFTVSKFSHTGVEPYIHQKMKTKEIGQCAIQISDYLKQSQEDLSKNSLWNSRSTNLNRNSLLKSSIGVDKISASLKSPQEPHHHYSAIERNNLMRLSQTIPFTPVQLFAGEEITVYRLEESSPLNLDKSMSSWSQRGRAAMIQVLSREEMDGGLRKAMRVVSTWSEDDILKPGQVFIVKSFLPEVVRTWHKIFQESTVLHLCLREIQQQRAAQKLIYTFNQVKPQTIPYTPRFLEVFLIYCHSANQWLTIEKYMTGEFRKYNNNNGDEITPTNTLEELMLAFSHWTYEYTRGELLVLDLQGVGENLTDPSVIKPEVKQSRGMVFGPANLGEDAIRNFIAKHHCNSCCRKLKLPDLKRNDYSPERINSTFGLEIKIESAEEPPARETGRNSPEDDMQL

Question: What does the source list for `C=CC(=O)Nc1ccc(OC)c(Nc2cc(-c3[nH]c(CC)nc3-c3cccc(NC(=O)c4cccc5c4NC(=O)c4ccccc4N5)c3)ccn2)c1` [Compound 4, N-(3-(5-(2-((5-Acrylamido-2-methoxyphenyl)amino)pyridin-4-yl)-2-ethyl-1H-imidazol-4-yl)phenyl)-11-oxo-10,11-dihydro-5H-dibenzo[b,e][1,4]diazepine-9-carboxamide]?
Answer: remaining binding at 1 µM (CSNK1A1): 56%; remaining binding at 1 µM (ABL2): 92%; remaining binding at 1 µM (ERK8): 100%; remaining binding at 1 µM (SBK1): 84%; remaining binding at 1 µM (EGFR(S752-1759del)): 6%; remaining binding at 1 µM (BRSK2): 93%; remaining binding at 1 µM [1]: 100%; remaining binding at 1 µM (EPHB1): 92%; remaining binding at 1 µM (ASK1): 100%; IC50 [2]: 1.8 ± 0.3 nM; remaining binding at 1 µM (EPHB2): 100%; remaining binding at 1 µM (EPHA6): 90%; remaining binding at 1 µM (GCN2(Kin.Dom.2 + S808G)): 100%; remaining binding at 1 µM (PRKX): 100%; remaining binding at 1 µM (EPHA3): 81%; remaining binding at 1 µM (PIM1): 94%; remaining binding at 1 µM (MLK1): 86%; remaining binding at 1 µM (MUSK): 100%; remaining binding at 1 µM (IKK-epsilon): 100%; remaining binding at 1 µM (TLK1): 87%; remaining binding at 1 µM (ULK2): 80%; remaining binding at 1 µM [3]: 86%; remaining binding at 1 µM (BUB1): 100%; remaining binding at 1 µM (KIT(V559D + T670I)): 95%; remaining binding at 1 µM (TRPM6): 99%
